Experimental data from patent US10111901B2, “Beta-glucan in combination with anti-cancer agents affecting the tumor microenvironment” (Biothera, Inc., priority 2014, dated 2018).

Experiments:
[1] = test system: CD4 T cells; assay: Mac-CD4 T cell proliferation assay (CFSE dilution, Division Index); type: cell-based, human
Procedure: (§1) CD14^+ monocytes from human whole blood were enriched using Ficoll gradient and magnetic bead separation. Enriched monocytes (5×10^5 cells per mL) were then cultured in either M1-polarizing (XVivo 10 media (Lonza Group) supplemented with 5% autologous serum and 100 ng/mL recombinant human granulocyte macrophage colony-stimulating factor (rhGM-CSF) (R&D Systems) or M2-polarizing (XVivo 10 media supplemented with 10% autologous serum and 50 ng/mL recombinant human macrophage colony-stimulating factor (rhM-CSF) (R&D Systems) conditions for 6 days. In experiments performed to evaluate the effect of β-glucan, whole blood was first incubated with vehicle (sodium citrate buffer) or 25 μg/mL soluble β-glucan for 2 hours at 37° C. and then the monocytes were isolated and differentiated. Morphology was checked before macrophages were harvested for phenotypic analysis. Culture medium of the day 6 macrophage culture (MCM) was collected, spun down to remove contaminated cell pellet and then frozen down for subsequent cytokine analysis by ELISA or used to setup a co-culture with CD3 & CD28-stimulated CD4 T cells (MCM-CD4 T) for evaluation of either surface markers or CD4 T cell proliferation. The macrophages were used to setup a co-culture with CD3 & CD28- or CD3 only-stimulated CD4 T cells (Mac-CD4 T) on day 6 for evaluation of either surface marker modulation or effect on CD4 T cell proliferation. For Mac-CD4 T cell proliferation study, M1 or M2 macrophages were cultured with CD3 & CD28- or CD3 only-stimulated, CFSE-labeled, autologous CD4 T cells at a 1:10 ratio. T cell proliferation was measured at the end of the experiment (day 9-day 11) by flow cytometry, and results are graphically shown as CFSE-dilution peaks. The assessment of CD3-only stimulated T cells was always done on day 11. Quantitative results were reported as the Division Index (the average number of cell divisions a population underwent) calculated for each of the triplicate wells in each of the culture conditions. Culture supernatants of Mac-CD4 T co-cultures were collected for subsequent cytokine analysis.
Next, vehicle- or β-glucan-treated M1 or M2 macrophages were cultured with CD3 and CD28-stimulated, carboxyfluorescein diacetate succinimidyl ester (CFSE)-labeled autologous CD4 T cells and T cell proliferation was measured at the end of the experiment by flow cytometry and results quantitatively reported as division index (the average number of cell divisions a population has undergone).
Next, the ability of M1/M2 macrophages derived from soluble β-glucan-treated monocytes from high binders and low binders to enhance CD3 & CD28-stimulated CD4 T cell proliferation was evaluated.
Evaluation of cell-to-cell contact was carried out as follows: vehicle- and β-glucan-treated M2 macrophages and CD3 & CD28− versus CD3 only-stimulated CD4 T cell co-cultures were utilized for measuring CD4 T cell proliferation and IFN-γ production.

[2] = test system: IFN-γ; assay: IFN-γ ELISA of co-culture supernatants; type: cell-based, human
Procedure: as §1
The culture supernatants from the CFSE dilution T-cell proliferation assay (FIG. 2B) were also measured for IFN-gamma levels by ELISA. […] Thus, β-glucan affects M2 to M1 repolarization and drives anti-tumorigenic Th1 polarization.
Modulation of IFN-γ and IL-4 production of vehicle- and β-glucan-treated M2 macrophages was then evaluated. […] Thus, M2 macrophages derived from β-glucan-treated monocytes are M1-like in high binder subjects.
M2 macrophages from 4 high binders and 4 low binders were prepared and evaluated for their ability to modulate CD4 T cell proliferation. The supernatants from the various CD4 T cell proliferation conditions were measured for IFN-γ by ELISA. Results shown in FIG. 10 are representative from 4 different experiments. Fold change over the IFN-γ levels produced in the co-cultures of vehicle-treated M2 macrophages and CD4 T cells are plotted for each of the 4 donors.

[3] = test system: CD4 and CD8 T cells; assay: T cell proliferation and activation of PBMCs cultured in plasma from treated whole blood; type: cell-based, human
Procedure: To obtain plasma, whole blood was treated for 6 hours with 25 μg/mL β-glucan or vehicle, spun down and the plasma removed. 50,000 autologous CFSE-labeled PBMCs were cultured in the treated plasma for 3 days in the presence of 50,000 T cell activating CD3/28 beads (DYNABEADS Human T-Activator CD3/CD28 for T Cell Expansion and Activation). At the end of the culture, PBMCs were stained with CD4 and CD8 and T cell proliferation was measured by CFSE dilution.
Next, to show the effect of soluble β-glucan on CD4 and CD8 cell activation, the T cell proliferation assay described above was again carried out. At day 3, however, the cells were stained for markers of activation including Granzyme B production and CD25 upregulation.
To determine whether the enhancement of T cell proliferation by β-glucan is direct or indirect, T cell proliferation assays were carried out as described above except the plasma from untreated (vehicle) whole blood was then either treated with β-glucan or vehicle prior to adding to autologous PBMCs. CFSE dilution was quantitated by Division Index using FLOWJO software and plotted as fold change over vehicle control. The results shown in FIG. 5C indicate that β-glucan's enhanced effect is due to indirect mechanisms.

[4] = test system: tumor cell lines, including NSCLC, breast, pancreatic, colon, and B cell lymphoma; assay: PD-L1 expression on tumor cell lines incubated with supernatant of M2 macrophage/MoDC and T cell co-culture; type: cell-based; conditions: supernatants of proliferation assays, 48 hours
Procedure: M2 macrophages and MoDC were prepared as described above. The macrophages and the MoDC were subsequently used in T cell proliferation assays as described previously. The supernatants from these proliferation assays were harvested and incubated with various tumor cell lines, including NSCLC, breast, pancreatic, colon, and B cell lymphoma. The expression of PD-L1 on these tumor cell lines were evaluated post 48 hours by flow cytometry. Shown in FIG. 15 are representative results from 3 different experiments.

[5] = test system: CD33+ MDSC; assay: MDSC in peripheral blood of a case study subject treated with IMPRIME PGG; type: in vivo, human; conditions: post-infusion, cycle 8, day 1; within hours
Source text: Blood was drawn at various times from a case study subject undergoing treatment with IMPRIME PGG and analyzed for the presence of MDSC. The first blood draw was done pre-infusion, cycle 8, day 1. […] A second blood draw was done post-infusion, cycle 8, day 1. […] The last blood sample was drawn pre-infusion, cycle 8, day 15. The CD33^+ MDSC are again present in the peripheral blood.

[6] = β-glucan-treated M2 macrophages, low binders

## β(1,6)-[poly-(1,3)-D-glucopyranosyl]-poly-β(1,3)-D-glucopyranose [β-glucan]
[1]; M2 macrophages cultured in TCM and M2a macrophages cultured in IL-4, vs vehicle-treated
  CD4 T cell proliferation: maintained the ability to enhance CD4 T cell proliferation
[1]; β-glucan-treated M1 macrophages, high binders or low binders
  CD3 & CD28-stimulated CD4 T cell proliferation: no differences
[1]; β-glucan-treated M2 macrophages vs vehicle-treated, high binders
  CD3 & CD28-stimulated CD4 T cell proliferation: significantly higher ability to enhance
[1]; β-glucan-treated M2 macrophages with CD3 and CD28-stimulated CD4 T cells, FIG. 2C
  CD4 T cell proliferation: enhance CD4 T cell proliferation
[1]; β-glucan-treated M2 macrophages, absence of exogenous CD28 antibody (CD3 only)
  CD4 T cell proliferation: significantly higher ability to enhance
[1]; [6]
  CD3 & CD28-stimulated CD4 T cell proliferation: no enhanced proliferation
[2]; M2 macrophage-CD4 T co-culture, FIG. 2D
  IFN-gamma levels in culture supernatants: concomitant increase in IFN-gamma production
[2]; co-cultures of β-glucan-treated M2 macrophages and CD4 T cells, high binders
  IFN-γ production: significantly increased production
[2]; co-cultures under immunosuppressive conditions (TCM, IL-4), FIG. 4
  IFN-γ production: significantly increased production
[2]; co-cultures without exogenous CD28 antibody, FIG. 8B
  IFN-γ production: significantly increased production
[2]; low binder crossed-over with high binder's serum, FIG. 11B
  IFN-γ production: significantly increased production
[2]; [6]
  IFN-γ production: nor increased IFN-γ production
[3]; plasma from whole blood treated 6 hours with 25 μg/mL β-glucan, vs vehicle
  CD4 and CD8 proliferation (CFSE dilution): significant enhancement
[3]; β-glucan-treated plasma, day 3
  CD4 and CD8 cell activation (Granzyme B production, CD25 upregulation): enhances CD4 and CD8 cell activation
[4]
  PD-L1 expression on the tumor cell lines: enhances PD-L1 expression
[5]
  CD33+ MDSC in peripheral blood: transiently disappear
